# Assay results: patent US11180494B2, “Substituted amino acids as integrin inhibitors” (Pliant Therapeutics, Inc., priority 2018, dated 2021)
# Target: human integrin αvβ6 (Homo sapiens (Human), UniProt P06756+P18564)
# Assay: Proximity-based integrin receptor binding assay (ALPHASCREEN) for inhibitor potency
# Details: inhibition of binding of TGF-b1 LAP to human integrin αvβ6; values given in ranges
# In short: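 AlphaScreen: integrin, compound, TGF-b1 LAP, biotinylated anti-LAP antibody and acceptor beads incubated 2 hours, then streptavidin donor beads 30 minutes, at room temperature in 50 mM Tris-HCl pH 7.5, 0.1% BSA, 1 mM CaCl2 and MgCl2. Excitation 680 nm, emission 520-620 nm; IC50 by four-parameter logistic fit.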
# human integrin αvβ6, sequence (P06756 31-992): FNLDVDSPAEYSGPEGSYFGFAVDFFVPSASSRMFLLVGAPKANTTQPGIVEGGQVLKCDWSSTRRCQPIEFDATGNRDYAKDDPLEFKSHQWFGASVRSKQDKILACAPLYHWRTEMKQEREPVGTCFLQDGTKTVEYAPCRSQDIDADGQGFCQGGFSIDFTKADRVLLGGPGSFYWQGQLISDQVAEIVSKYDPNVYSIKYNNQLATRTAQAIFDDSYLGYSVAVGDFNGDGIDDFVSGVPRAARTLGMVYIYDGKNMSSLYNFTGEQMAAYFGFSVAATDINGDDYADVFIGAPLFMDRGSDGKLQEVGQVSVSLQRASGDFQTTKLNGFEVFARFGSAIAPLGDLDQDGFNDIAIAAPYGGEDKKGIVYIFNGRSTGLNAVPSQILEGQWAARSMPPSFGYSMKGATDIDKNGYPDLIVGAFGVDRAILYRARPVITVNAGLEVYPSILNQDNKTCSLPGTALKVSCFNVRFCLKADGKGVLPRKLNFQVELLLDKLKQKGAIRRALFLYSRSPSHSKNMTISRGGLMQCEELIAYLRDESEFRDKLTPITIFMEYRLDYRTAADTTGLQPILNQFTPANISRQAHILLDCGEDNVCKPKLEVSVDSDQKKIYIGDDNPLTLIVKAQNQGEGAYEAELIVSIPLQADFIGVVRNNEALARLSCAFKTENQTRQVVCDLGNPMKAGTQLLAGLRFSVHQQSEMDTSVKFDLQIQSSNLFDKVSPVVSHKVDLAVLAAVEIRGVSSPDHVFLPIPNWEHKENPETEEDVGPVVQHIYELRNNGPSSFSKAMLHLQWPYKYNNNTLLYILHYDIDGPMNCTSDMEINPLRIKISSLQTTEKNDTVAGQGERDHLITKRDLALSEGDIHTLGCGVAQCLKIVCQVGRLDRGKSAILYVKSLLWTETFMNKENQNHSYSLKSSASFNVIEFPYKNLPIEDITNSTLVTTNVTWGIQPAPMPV
# human integrin αvβ6, sequence (P18564 22-707): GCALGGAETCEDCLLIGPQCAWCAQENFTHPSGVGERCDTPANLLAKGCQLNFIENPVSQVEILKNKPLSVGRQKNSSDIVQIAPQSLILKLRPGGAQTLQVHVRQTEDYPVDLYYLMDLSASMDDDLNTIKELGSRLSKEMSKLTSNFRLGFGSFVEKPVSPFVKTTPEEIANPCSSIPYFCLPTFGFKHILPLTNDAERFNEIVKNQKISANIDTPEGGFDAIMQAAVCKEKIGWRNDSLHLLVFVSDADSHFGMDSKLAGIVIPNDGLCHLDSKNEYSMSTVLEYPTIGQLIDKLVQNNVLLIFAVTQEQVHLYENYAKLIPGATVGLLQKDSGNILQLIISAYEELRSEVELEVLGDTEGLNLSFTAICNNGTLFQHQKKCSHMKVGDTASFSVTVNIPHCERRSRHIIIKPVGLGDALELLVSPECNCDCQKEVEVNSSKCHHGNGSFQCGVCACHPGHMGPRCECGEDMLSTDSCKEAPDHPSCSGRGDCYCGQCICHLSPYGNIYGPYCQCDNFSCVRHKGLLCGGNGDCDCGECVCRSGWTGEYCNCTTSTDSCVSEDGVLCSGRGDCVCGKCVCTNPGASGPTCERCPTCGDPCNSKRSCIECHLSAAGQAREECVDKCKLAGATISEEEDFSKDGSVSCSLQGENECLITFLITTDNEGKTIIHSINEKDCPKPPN
row,IC50,Compound
1,50 to 250 nM,"Cc1cncc(Cl)c1C(=O)N[C@@H](CCO[C@H]1C[C@@H](CCc2ccc3c(n2)NCCC3)C1)C(=O)O [Compound 199, N-(3-chloro-5-methylisonicotinoyl)-O-(cis-3-(2-(5,6,7,8-tetrahydro-1,8-naphthyridin-2-yl)ethyl)cyclobutyl)homoserine]"
2,< 50 nM,"N#CC1(C(=O)N[C@@H](CCO[C@H]2C[C@H](CCc3ccc4c(n3)NCCC4)C2)C(=O)O)CCOCC1 [Compound 171, N-(4-cyanotetrahydro-2H-pyran-4-carbonyl)-O-(trans-3-(2-(5,6,7,8-tetrahydro-1,8-naphthyridin-2-yl)ethyl)cyclobutyl)homoserine]"
3,50 to 250 nM,"CC(C)(Cc1ccccc1)C(=O)NC(CCO[C@H]1C[C@H](CCc2ccc3c(n2)NCCC3)C1)C(=O)O (stereo partly drawn) [Compound 100, N-(2,2-dimethyl-3-phenylpropanoyl)-O-(trans-3-(2-(5,6,7,8-tetrahydro-1,8-naphthyridin-2-yl)ethyl)cyclobutyl)homoserine]"
4,< 50 nM,"CC(C)(CC#N)C(=O)NC(CCO[C@H]1C[C@H](CCc2ccc3c(n2)NCCC3)C1)C(=O)O (stereo partly drawn) [Compound 108, N-(3-cyano-2,2-dimethylpropanoyl)-O-(trans-3-(2-(5,6,7,8-tetrahydro-1,8-naphthyridin-2-yl)ethyl)cyclobutyl)homoserine]"
5,50 to 250 nM,"CC(C)(C(=O)NC(CCO[C@H]1C[C@H](CCc2ccc3c(n2)NCCC3)C1)C(=O)O)c1cccnc1 (stereo partly drawn) [Compound 91, N-(2-methyl-2-(pyridin-3-yl)propanoyl)-O-(trans-3-(2-(5,6,7,8-tetrahydro-1,8-naphthyridin-2-yl)ethyl)cyclobutyl)homoserine]"
6,< 50 nM,"O=C(O)[C@H](CCO[C@H]1C[C@H](CCc2ccc3c(n2)NCCC3)C1)NC(=O)C1(C(F)(F)F)CCOCC1 [Compound 174, O-(trans-3-(2-(5,6,7,8-tetrahydro-1,8-naphthyridin-2-yl)ethyl)cyclobutyl)-N-(4-(trifluoromethyl)tetrahydro-2H-pyran-4-carbonyl)homoserine]"
7,50 to 250 nM,"O=C(NC(CCO[C@H]1C[C@H](CCc2ccc3c(n2)NCCC3)C1)C(=O)O)c1cccc(F)c1Cl (stereo partly drawn) [Compound 60, N-(2-chloro-3-fluorobenzoyl)-O-(trans-3-(2-(5,6,7,8-tetrahydro-1,8-naphthyridin-2-yl)ethyl)cyclobutyl)homoserine]"
8,> 1000 nM,"O=C(O)C(CCO[C@H]1C[C@H](CCc2ccc3c(n2)NCCC3)C1)NC(=O)[C@H](O)c1ccccc1 (stereo partly drawn) [Compound 81, N—((R)-2-hydroxy-2-phenylacetyl)-O-(trans-3-(2-(5,6,7,8-tetrahydro-1,8-naphthyridin-2-yl)ethyl)cyclobutyl)homoserine]"
9,< 50 nM,"CC1(C(=O)N[C@@H](CCO[C@H]2C[C@H](CCc3ccc4c(n3)NCCC4)C2)C(=O)O)CCOCC1 [Compound 164, N-(4-methyltetrahydro-2H-pyran-4-carbonyl)-O-(trans-3-(2-(5,6,7,8-tetrahydro-1,8-naphthyridin-2-yl)ethyl)cyclobutyl)homoserine]"
10,> 1000 nM,"N—((R)-2-hydroxy-2-phenylacetyl)-O-(4-(5,6,7,8-tetrahydro-1,8-naphthyridin-2-yl)butyl)-D-homoserine [Compound 77]"
11,< 50 nM,"O=C(CC1CCC1)N[C@@H](CCO[C@H]1C[C@H](CCc2ccc3c(n2)NCCC3)C1)C(=O)O [Compound 124, N-(2-cyclobutylacetyl)-O-(trans-3-(2-(5,6,7,8-tetrahydro-1,8-naphthyridin-2-yl)ethyl)cyclobutyl)homoserine]"

# The next lines start with the compound.
row,Compound,IC50
1,"O=C(N[C@@H](CCO[C@H]1C[C@H](CCc2ccc3c(n2)NCCC3)C1)C(=O)O)c1cccc(F)c1 [Compound 19, N-(3-fluorobenzoyl)-O-(trans-3-(2-(5,6,7,8-tetrahydro-1,8-naphthyridin-2-yl)ethyl)cyclobutyl)homoserine]",< 50 nM
2,"CCC(CC)CC(=O)N[C@H](CCO[C@H]1C[C@H](CCc2ccc3c(n2)NCCC3)C1)C(=O)O [Compound 59, N-(3-ethylpentanoyl)-O-(trans-3-(2-(5,6,7,8-tetrahydro-1,8-naphthyridin-2-yl)ethyl)cyclobutyl)-D-homoserine]",> 1000 nM
3,"O=C(NC(CCO[C@H]1C[C@H](CCc2ccc3c(n2)NCCC3)C1)C(=O)O)OC1CCC1c1ccccc1 (stereo partly drawn) [Compound 142, N-((2-phenylcyclobutoxy)carbonyl)-O-(trans-3-(2-(5,6,7,8-tetrahydro-1,8-naphthyridin-2-yl)ethyl)cyclobutyl)homoserine]",50 to 250 nM
4,"O=C(N[C@@H](CCO[C@H]1C[C@H](CCc2ccc3c(n2)NCCC3)C1)C(=O)O)c1cccc2cccnc12 [Compound 55, N-(quinoline-8-carbonyl)-O-(trans-3-(2-(5,6,7,8-tetrahydro-1,8-naphthyridin-2-yl)ethyl)cyclobutyl)homoserine]",250 to 1000 nM
5,"O=C(N[C@@H](CCO[C@H]1C[C@H](CCc2ccc3c(n2)NCCC3)C1)C(=O)O)c1ccc(Cl)cc1 [Compound 17, N-(4-chlorobenzoyl)-O-(trans-3-(2-(5,6,7,8-tetrahydro-1,8-naphthyridin-2-yl)ethyl)cyclobutyl)homoserine]",< 50 nM
6,"O=C(N[C@@H](CCO[C@H]1C[C@H](CCc2ccc3c(n2)NCCC3)C1)C(=O)O)c1ccccc1C1CC1 [Compound 52, N-(2-cyclopropylbenzoyl)-O-(trans-3-(2-(5,6,7,8-tetrahydro-1,8-naphthyridin-2-yl)ethyl)cyclobutyl)homoserine]",< 50 nM
7,"CC(CO[C@H]1C[C@H](CCc2ccc3c(n2)NCCC3)C1)C(NC(=O)OC(C)(C)C)C(=O)O (single isomer, unassigned) [Example 145A, 2-((tert-butoxycarbonyl)amino)-3-methyl-4-(trans-3-(2-(5,6,7,8-tetrahydro-1,8-naphthyridin-2-yl)ethyl)cyclobutoxy)butanoic Acid]",250 to 1000 nM
8,"O=C(O)C(CCO[C@H]1C[C@H](CCc2ccc3c(n2)NCCC3)C1)NC(=O)[C@@H](CO)c1ccccc1 (stereo partly drawn) [Compound 43, N—((R)-3-hydroxy-2-phenylpropanoyl)-O-(trans-3-(2-(5,6,7,8-tetrahydro-1,8-naphthyridin-2-yl)ethyl)cyclobutyl)homoserine]",250 to 1000 nM
9,"CC(C)(C)OC(=O)N1CC(OC(=O)N[C@@H](CCO[C@H]2C[C@H](CCc3ccc4c(n3)NCCC4)C2)C(=O)O)C1 [Compound 147, N-(((1-(tert-butoxycarbonyl)azetidin-3-yl)oxy)carbonyl)-O-(trans-3-(2-(5,6,7,8-tetrahydro-1,8-naphthyridin-2-yl)ethyl)cyclobutyl)homoserine]",< 50 nM
10,"CCC(CC)CC(=O)NC(CCO[C@H]1C[C@H](CCc2ccc3c(n2)NCCC3)C1)C(=O)O (stereo partly drawn) [Compound 45, N-(3-ethylpentanoyl)-O-(trans-3-(2-(5,6,7,8-tetrahydro-1,8-naphthyridin-2-yl)ethyl)cyclobutyl)homoserine]",50 to 250 nM
11,"O=C(N[C@@H](CCO[C@H]1C[C@H](CCc2ccc3c(n2)NCCC3)C1)C(=O)O)c1cc(F)cc(Cl)c1 [Compound 26, N-(3-chloro-5-fluorobenzoyl)-O-(trans-3-(2-(5,6,7,8-tetrahydro-1,8-naphthyridin-2-yl)ethyl)cyclobutyl)homoserine]",< 50 nM

# Same assay, conditions: inhibition of binding of TGF-b1 LAP to human integrin αvβ6; values given in ranges; listed as 98**
row,IC50,Compound
1,< 50 nM,"CC(C)(C(=O)NC(CCO[C@H]1C[C@H](CCc2ccc3c(n2)NCCC3)C1)C(=O)O)c1ccccc1 (stereo partly drawn) [Compound 98, N-(2-methyl-2-phenylpropanoyl)-O-(trans-3-(2-(5,6,7,8-tetrahydro-1,8-naphthyridin-2-yl)ethyl)cyclobutyl)homoserine]"
